In the supplement of paper PMC4862054:

Legend:
Details in all cases: incubation time: 72 h
MDA-MB-453 [1] = assay: normalised response (% of control), CellTiter-Glo; higher = more viable cells (100 = DMSO, 0 = benzethonium chloride kill control)
Description: (§1)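 DSRT, 72 h incubation, CellTox Green / CellTiter-Glo readout. Signal is normalised to DMSO and benzethonium chloride controls. Value is the normalised response at dose 3.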

Hs578T [2] = assay: as above
Description: as §1

CAL-120 [3] = assay: as above
Description: as §1

MCF-10A [4] = assay: as above
Description: as §1

HDQ-P1 [5] = assay: as above
Description: as §1

MDA-MB-436 [6] = assay: as above
Description: as §1

BT-474 [7] = assay: as above
Description: as §1

HCC1599 [8] = assay: as above
Description: as §1

BT-549 [9] = assay: as above
Description: as §1

SK-BR-3 = assay: as above
Description: as §1

CAL-148 [10] = assay: as above
Description: as §1

MDA-MB-468 [11] = assay: as above
Description: as §1

MDA-MB-231 [12] = assay: as above
Description: as §1

HCC1143 [13] = assay: as above
Description: as §1

HCC1937 [14] = assay: as above
Description: as §1

DU-4475 [15] = assay: as above
Description: as §1

MFM-223 [16] = assay: as above
Description: as §1

CAL-51 [17] = assay: as above
Description: as §1

CAL-85-1 [18] = assay: as above
Description: as §1

MDA-MB-453 [19] = assay: normalised response (% of control), CellTox Green; higher = less cell death (100 = DMSO, 0 = benzethonium chloride kill control)
Outline: (§2)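 Two readouts were taken after 72 h: CellTox Green fluorescence (485/520 nm) first, then CellTiter-Glo luminescence after 10 min at room temperature. Breast cancer cell lines had been seeded as 20 µl suspension into 384-well plates holding compound at 5 concentrations in 10-fold steps across a compound-specific 10,000-fold range. Each value is a normalised signal at a single concentration, with plates scaled to 0.1 % DMSO (100) and a positive kill control (0).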

Hs578T [20] = assay: as above
Outline: as §2

CAL-120 [21] = assay: as above
Outline: as §2

MCF-10A [22] = assay: as above
Outline: as §2

HDQ-P1 [23] = assay: as above
Outline: as §2

MDA-MB-436 [24] = assay: as above
Outline: as §2

BT-474 [25] = assay: as above
Outline: as §2

HCC1599 [26] = assay: as above
Outline: as §2

BT-549 [27] = assay: as above
Outline: as §2

CAL-148 [28] = assay: as above
Outline: as §2

MDA-MB-468 [29] = assay: as above
Outline: as §2

MDA-MB-231 [30] = assay: as above
Outline: as §2

HCC1143 [31] = assay: as above
Outline: as §2

HCC1937 [32] = assay: as above
Outline: as §2

DU-4475 [33] = assay: as above
Outline: as §2

MFM-223 [34] = assay: as above
Outline: as §2

CAL-51 [35] = assay: as above
Outline: as §2

CAL-85-1 [36] = assay: as above
Outline: as §2

| Compound | normalised response (MDA-MB-453 [1]) | normalised response (Hs578T [2]) | normalised response (CAL-120 [3]) | normalised response (MCF-10A [4]) | normalised response (HDQ-P1 [5]) | normalised response (MDA-MB-436 [6]) | normalised response (BT-474 [7]) | normalised response (HCC1599 [8]) | normalised response (BT-549 [9]) | normalised response (SK-BR-3) | normalised response (CAL-148 [10]) | normalised response (MDA-MB-468 [11]) | normalised response (MDA-MB-231 [12]) | normalised response (HCC1143 [13]) | normalised response (HCC1937 [14]) | normalised response (DU-4475 [15]) | normalised response (MFM-223 [16]) | normalised response (CAL-51 [17]) | normalised response (CAL-85-1 [18]) | normalised response (MDA-MB-453 [19]) | normalised response (Hs578T [20]) | normalised response (CAL-120 [21]) | normalised response (MCF-10A [22]) | normalised response (HDQ-P1 [23]) | normalised response (MDA-MB-436 [24]) | normalised response (BT-474 [25]) | normalised response (HCC1599 [26]) | normalised response (BT-549 [27]) | normalised response (CAL-148 [28]) | normalised response (MDA-MB-468 [29]) | normalised response (MDA-MB-231 [30]) | normalised response (HCC1143 [31]) | normalised response (HCC1937 [32]) | normalised response (DU-4475 [33]) | normalised response (MFM-223 [34]) | normalised response (CAL-51 [35]) | normalised response (CAL-85-1 [36]) |
| --- | --- | --- | --- | --- | --- | --- | --- | --- | --- | --- | --- | --- | --- | --- | --- | --- | --- | --- | --- | --- | --- | --- | --- | --- | --- | --- | --- | --- | --- | --- | --- | --- | --- | --- | --- | --- | --- |
| Cc1cn(-c2cc(NC(=O)c3ccc(C)c(Nc4nccc(-c5cccnc5)n4)c3)cc(C(F)(F)F)c2)cn1 [Nilotinib] (100 nM) | 96.3% | 97.6% | 94.4% | 104% | 105% | 100% | 99% | 106% | 115% | 96.3% | 106% | 103% | 94.9% | 94.2% | 95.4% | 103% | 96% | 81.9% | 107% | 85.7% | 85.3% | 85.9% | 99.2% | 68.1% | 103% | 102% | 105% | 97.5% | 93.5% | 123% | 110% | 109% | 103% | 102% | 61.4% | 96.3% | 105% |
| CN[C@@H](C)C(=O)N[C@H]1CN(C(=O)CC(C)C)CC[C@H]2CC[C@@H](C(=O)NC(c3ccccc3)c3ccccc3)N2C1=O [AT-406] (100 nM) | 89.8% | 100% | 92.5% | 111% | 95.9% | 105% | 54% | 79.1% | 47.4% | 99.9% | 102% | 103% | 63.9% | 103% | 103% | 102% | 102% | 109% | 86.6% | 102% | 97.2% | 83% | 101% | 86.4% | 76.2% | 94.9% | 101% | 68.8% |  | 114% | 35.2% | 70.4% | 95.2% | 104% | 104% | 96.3% |  |
| CNC(=O)c1ccccc1Sc1ccc2c(/C=C/c3ccccn3)n[nH]c2c1 [Axitinib] (100 nM) | 110% | 98.5% | 104% | 100% | 102% | 102% | 104% | 101% | 107% | 103% | 112% | 93.8% | 111% | 102% | 97.8% | 111% | 90.5% | 81.6% | 109% | 110% | 111% | 99.2% | 98.7% | 116% |  | 102% | 113% | 113% | 108% | 132% | 105% | 105% | 102% | 104% | 96% | 107% | 104% |
| CN(Cc1cnc2nc(N)nc(N)c2n1)c1ccc(C(=O)N[C@@H](CCC(=O)O)C(=O)O)cc1 [Methotrexate] (500 nM) | 110% | 102% | 81.8% | 104% | 57% | 91.9% | 101% | 118% | 102% | 108% | 106% | 101% | 111% | 96.4% | 27.3% | 105% | 105% | 95.3% | 95.6% | 106% | 87.8% | 100% | 96.5% | 102% | 105% | 102% | 102% | 99.2% | 102% | 118% | 84.1% | 114% | 112% | 105% | 101% | 104% | 98.4% |
| CC(C)(C)NC(=O)[C@H]1CC[C@H]2[C@@H]3CC[C@H]4NC(=O)C=C[C@]4(C)[C@H]3CC[C@]12C [Finasteride] (100 nM) | 109% | 105% | 114% | 110% | 96.6% | 107% | 99.2% | 97.8% | 100% | 101% | 108% | 94.9% | 104% | 98.9% | 95.7% | 104% | 104% | 87.7% | 98.5% | 103% | 107% | 100% | 95.4% | 83.5% | 94.8% | 99% | 104% | 102% | 57.3% | 98.8% | 101% | 93.1% | 99.7% | 102% | 85.2% | 101% | 100% |
| CC(C)C[C@H](NC(=O)[C@@H](COC(C)(C)C)NC(=O)[C@H](Cc1ccc(O)cc1)NC(=O)[C@H](CO)NC(=O)[C@H](Cc1c[nH]c2ccccc12)NC(=O)[C@H](Cc1cnc[nH]1)NC(=O)[C@@H]1CCC(=O)N1)C(=O)N[C@@H](CCCNC(=N)N)C(=O)N1CCC[C@H]1C(=O)NNC(N)=O [Goserelin] (100 nM) | 101% | 97.1% | 103% | 94% | 99.9% | 101% | 99.2% | 94.2% | 103% | 92.7% | 93.8% | 102% | 99% | 98.7% | 95.8% | 97.4% | 94.9% | 71% | 97.3% | 105% | 78.9% | 96.2% | 98.9% | 108% | 89.7% | 101% | 86.3% | 108% | 87.4% | 129% | 89.7% | 55.7% | 89.5% | 97.8% | 99.1% | 60.7% | 99.8% |
| O=C(O)CNC(=O)c1c(O)c2ccccc2n(Cc2ccccc2)c1=O [IOX-2] (500 nM) | 105% | 99.4% | 103% | 104% | 102% | 94.4% | 99.2% | 98.5% | 94.7% | 96.3% | 92.9% | 90.4% | 100% | 98.4% | 97.2% | 101% | 97.1% | 61.5% | 99% | 104% | 99.3% | 97.7% | 95.2% | 100% | 98.3% | 103% | 99.3% | 97.3% | 73.2% | 115% | 110% | 83.3% | 95.6% | 111% | 101% | 73.4% | 112% |
| Cc1cc(Nc2nc(N[C@@H](C)c3ncc(F)cn3)ncc2Cl)[nH]n1 [AZD1480] (10 nM) | 88.9% | 92.2% | 98.4% | 92.3% | 97.1% | 106% | 99.9% | 107% | 102% | 97% | 93.5% | 104% | 96.1% | 103% | 98.9% | 93.9% | 96% | 114% | 103% | 98.8% | 109% | 95.6% |  | 97.8% | 73.2% | 98.2% | 99.4% | 65.3% | 66.3% | 136% | 95.6% | 106% | 92.2% | 96.6% | 96.4% | 111% | 108% |
